Reference: PMC8891364, “Synthesis, and docking studies of novel heterocycles incorporating the indazolylthiazole moiety as antimicrobial and anticancer agents” (Scientific Reports, 2022)
In brackets after ≈: the same amount, converted by molar mass. Several values for one entry are separate records, joined by “and”; a condition that tells them apart may be missing. Equal values may be shown once.

What was measured:
VEGF gene = assay: qRT-PCR gene expression in HepG-2 and Caco-2 cells; format: cell-based, human; settings: IC50 concentrations, 2 days, compared to 5-FU and untreated cells
Experimental: (§1) The effects of the potent antitumor derivatives (4, 6, and 8) on the expression level of some tumor regulating genes were elucidated through quantitative real-time PCR (qRT- PCR) and compared to 5-fluorouracil (5-FU) as a reference antitumor drug. Five genes were assessed, including the tumor oncogene (Bcl-2), tumor suppressor gene (p53), matrix metalloproteinase gene (MMP-9), vascular endothelial growth factor gene (VEGF), and beta-catenin protein gene (β-catenin), in HepG-2 and Caco-2 cells, before and after treatment for 2 days with IC50 concentrations for compounds 4, 6, and 8. Following the extraction of total RNA from the tested cells, using the Gene JET RNA Purification Kit (Thermo Scientific, USA), cDNA synthesis was performed according to the cDNA Synthesis Kit protocol (Thermo Scientific, USA). qRT PCR was performed using the SYBR green kit and specific primers (Forward/Reverse) as follows: 5′-[…]-3'/5'-TCG GTCTCCTAAAAGCAGGC-3′ for the Bcl-2 gene, 5′-TAACAGTTCCTGCATG GG CG GC-3′/5′-[…]-3′ for p53, 5'-CTGCGTATTTCCATT CATC-3'/5'-CCTTGGGTCAGGTTTAGAG-3' for the MMP-9 gene, 5'-GGCTTTACT GCTGTACCTCC-3'/5'-CAAATGCTTTCTCCGCTCT-3' for the VEGF gene, and 5'-CATATGCGGCTGCTG TTCTA-3'/5'-CCGAAAG CCGTTTCTTGTAG-3' for the β-catenin gene. The upregulation and/or downregulation of the expression of the tested genes in Caco-2 and HepG-2 cells was determined by using the equation 2^−ΔΔCT[60].

Bcl-2 gene = assay: qRT-PCR gene expression in HepG-2 and Caco-2 cells; format: cell-based, human; settings: for gene expression of Bcl-2: HepG-2 and Caco-2 cells, IC50 concentrations, 2 days, compared to 5-FU and untreated cells; for downregulation of Bcl-2 expression, fold: compared to control cells
Experimental: as §1

β-catenin gene = assay: qRT-PCR gene expression in HepG-2 and Caco-2 cells; format: cell-based, human; settings: IC50 concentrations, 2 days
Experimental: as §1

MMP-9 gene = assay: qRT-PCR gene expression in HepG-2 and Caco-2 cells; format: cell-based, human; settings: IC50 concentrations, 2 days, compared to 5-FU and untreated cells
Experimental: as §1

Caco-2 cells [1] = assay: Cell cycle arrest analysis by flow cytometry; format: cell-based, human; settings: 48 h, IC50 concentrations, vs untreated control
Experimental: The cell cycle arrest of treated Caco-2 cells was evaluated through flow cytometry (Partec, Germany) in comparison with untreated cells and treated cells with 5-FU as a positive control[60],[62]. […] After washing the cells three times, the cells were fixed by adding 1 mL of 70% cold ethanol dropwise with a gentle vortex. Caco-2 cells were washed three times again with cold PBS and incubated in 1 mL of PBS containing 5 μg/mL RNase A (Sigma-Aldrich) for 1 h at 37 °C. Then 10 μL of PI (Sigma-Aldrich) was added to cells at a final concentration of 1 mg/mL in deionized water and left at 4 °C until analysis in the dark. The cell cycle of Caco-2 cells before and after treatment was analyzed by FACS using Cell Quist and Mod Fit software by reading at 488 nm.

HepG-2 cells = assay: MTT antitumor assay, hepatoma cells; format: cell-based, human; settings: for IC50: Homo sapiens, HepG2, 48 h; for SI HepG-2: ratio of IC50 of normal cells (HFB-4) versus IC50 of tumor cells
Experimental: (§2) The human melanocytes (HFB-4) cells, hepatoma (HepG-2) cells, and colon carcinoma (Caco-2) cells were obtained from American Type Culture Collection (ATCC, USA). The cytotoxicity of the newly synthesized compounds (at various concentrations) was determined using the 3-[4, 5-dimethylthiazol]-2, 5-diphenyltetrazolium bromide method (MTT assay)[59] against HFB-4 cells (normal human melanocytes), HepG-2 cells (hepatoma), and Caco-2 cells (colon carcinoma). Normal and cancer cells (1.0 × 10^4) were cultured in sterile 96-well microplates, and incubated for 24 h in DMEM (Lonza, USA) supplemented with 10% fetal bovine serum (Gibco, USA) for HFB-4 and Caco-2 cells or in an RPMI-1640 medium (Lonza, USA) supplemented with 10% FBS for HepG-2 cells. After 24 h of incubation, different doses of the tested synthesized compounds ([…]) were added in triplicate to all cells and incubated for another 48 h in 5% CO2. After washing the cells 3 times with fresh media, to remove dead cells and debris, a solution of MTT (Sigma -Aldrich, 0.5 mg/mL) was added to each well and further incubated for 2–5 h at 37 °C. Afterward, the MTT solution was decanted and 200 µL of DMSO was added. The optical density was measured at 570 nm using a microplate reader (BMG LabTech, Germany), where the cells’ relative viability (%) was estimated using the following equation: viability of cells (%) = [A1 − A0/AU − A0] × 100, where A1 is the absorbance of the test compound, A0 is the absorbance of the blank, and AU is the absorbance of untreated cells (control).
(§3) The antitumor activity of the synthesized compound was determined by calculating the IC50 value (half maximal inhibitory concentration) using Graph Pad Prism 6.0 software. The value of IC50 indicates the derivative concentration that causes 50% cell death, whereas the value of the selectivity index (SI), indicating the ratio of the IC50 value of normal cells versus the IC50 value of tumor cells, was also included as reported by[60],[61].

[2] = test system: Pseudomonas aeruginosa ATCC 27853; assay: Antimicrobial microtiter-plate MIC assay; format: cell-based; settings: Pseudomonas aeruginosa, ATCC27853; 24 h, 37 °C
Experimental: (§4) The antimicrobial activity of the newly synthesized compounds (2–9) was evaluated against three model pathogenic microorganisms as follows: Streptococcus mutans ATCC 25175 (Gram-positive bacterium); Pseudomonas aeruginosa ATCC 27853 (Gram-negative bacterium); and Candida albicans ATCC 10231 (fungi-like unicellular organism). After cultivating the three tested pathogens overnight in LB broth, 100 µL of each tested organism (10^6 CFU/mL) was added separately to 100 µL of the serially diluted test compounds (5–80 µg) in a 96-well tissue culture plate and incubated at 37 °C for 24 h. Eventually, microbial growth was measured at 600 nm, and the results are presented in the form of MIC (Table 4). Two antibacterial reference drugs, ampicillin and ciprofloxacin, and one antifungal drug, clotrimazole, were incorporated into the experiments.

[3] = test system: Streptococcus mutans ATCC 25175; assay: Antimicrobial microtiter-plate MIC assay; format: cell-based; settings: Streptococcus mutans, ATCC25175, 24 h, read-out: MIC Streptococcus mutant
Experimental: as §4

[4] = test system: Candida albicans ATCC 10231; assay: Antimicrobial microtiter-plate MIC assay; format: cell-based; settings: Candida albicans, ATCC10231; 24 h, 37 °C
Experimental: as §4

Pseudomonas aeruginosa = assay: Microbial-biofilm inhibition, tissue-culture plate technique (TCP); format: cell-based; settings: 25 µg/mL, 24 h
Experimental: (§5) The activity of the newly synthesized compounds against microbial biofilm formation was estimated through the tissue-culture plate technique (TCP) as follows: the three above-mentioned pathogens, Streptococcus mutans, Pseudomonas aeruginosa, and Candida albicans were cultivated overnight in LB broth at 37 °C. Afterward, 200 µL of each diluted organism (10^6 CFU/mL) was inoculated separately (in triplicate) into 96-well tissue culture plates and incubated overnight at 37 °C. The free planktonic cells were removed, after the incubation period, by flipping the plate and washing each well three times with phosphate-buffered-saline (PBS), pH 7.1. To each well, 175 µL of fresh LB broth was added along with 25 µL of the tested compound (25 µg/mL final concentrations). The plates were reincubated at 37 °C for another 24 h, washed with PBS buffer pH 7.1 three times, and dried for 5 min at 50 °C. The formed biofilm was stained with crystal violet solution (0.1% w/v) for 5 min. The excess stain was decanted, and the stained biofilm was solubilized with 200 µL of glacial acetic acid (30% v/v), where the developed blue color was measured at 590 nm. The results are expressed as relative inhibition (%) compared to untreated groups (control). Controls were prepared by culturing the three pathogens on LB medium without any tested compounds.

Streptococcus mutans = assay: as above; format: cell-based; settings: 25 µg/mL, 24 h
Experimental: as §5

Caco-2 cells [5] = assay: MTT antitumor assay, colon carcinoma cells; format: cell-based; settings: for IC50: Homo sapiens, Caco-2, 48 h; for SI Caco-2: ratio of IC50 of normal cells (HFB-4) versus IC50 of tumor cells
Experimental: as §2, §3

HFB-4 cells = assay: MTT cytotoxicity assay, normal human melanocytes; format: cell-based; settings: Melanocyte, 48 h
Experimental: as §2, §3

Candida albicans = assay: Microbial-biofilm inhibition, tissue-culture plate technique (TCP); format: cell-based; settings: Candida albicans, 24 h, relative to untreated
Experimental: as §5

| SMILES | gene expression of VEGF (VEGF gene) | gene expression of Bcl-2 (Bcl-2 gene) | downregulation of Bcl-2 expression, fold (Bcl-2 gene) | expression of the β-catenin gene (β-catenin gene) | gene expression of MMP-9 (MMP-9 gene) | apoptotic phase (sub-G1) population (Caco-2 cells [1]) | synthesis (S) phase population (Caco-2 cells [1]) | IC50 (HepG-2 cells; MTT, 48 h) | SI HepG-2 (HepG-2 cells) | MIC [2] | MIC [3] | MIC [4] | antibiofilm formation activity Streptococcus mutans (in words) (Streptococcus mutans) | IC50 (Caco-2 cells [5]; MTT, 48 h) | SI Caco-2 (Caco-2 cells [5]) | IC50 (HFB-4 cells) | also measured |
| --- | --- | --- | --- | --- | --- | --- | --- | --- | --- | --- | --- | --- | --- | --- | --- | --- | --- |
| N#Cc1c(N)oc2nc(N3NC4=C(CCCC4)C3c3ccccc3)sc12 (centres unmarked) [Compound 4, 5-amino-2-(3-phenyl-1,3,4,5,6,7-hexahydro-2H-indazol-2-yl)furo[2,3-d] thiazole-6-carbonitrile] | significantly downregulated | significantly downregulated | more than threefold | significantly suppressed | significantly downregulated | becomes detectable after treatment | decreased | 7.88 ± 0.1 µg/mL (≈ 21.7 µM) | 18.1 and 18.06 ± 0.19 | 60.8 ± 2.22 µg/mL (≈ 167 µM) | 34.41 ± 0.237 µg/mL (≈ 94.7 µM) | 48.9 ± 1.05 µg/mL (≈ 135 µM) | had antibiofilm formation activities | 6.18 ± 1.14 µg/mL (≈ 17 µM) | 23 and 23.03 ± 0.24 | 142 ± 1.48 µg/mL (≈ 392 µM) | biofilm inhibition activity Pseudomonas aeruginosa (in words) (Pseudomonas aeruginosa): high biofilm inhibition activity |
| NNC(=O)c1c(N)sc2sc(N3NC4=C(CCCC4)C3c3ccccc3)nc12 (centres unmarked) [Compound 6, 5-amino-2-(3-phenyl-1,3,4,5,6,7-hexahydro-2H-indazol-2-yl)thieno[3,2-d] thiazole-6-carbohydrazide] | significantly downregulated | significantly downregulated | more than threefold | significantly suppressed | significantly downregulated | becomes detectable after treatment | decreased | 6.12 ± 0.19 µg/mL (≈ 14.8 µM) | 21.8 and 21.75 ± 0.03 | 58.5 ± 2.27 µg/mL (≈ 142 µM) | 39.58 ± 0.348 µg/mL (≈ 95.9 µM) | 57.3 ± 1.32 µg/mL (≈ 139 µM) | – | 5.21 ± 0.22 µg/mL (≈ 12.6 µM) | 25.6 and 25.59 ± 0.03 | 133 ± 4.18 µg/mL (≈ 323 µM) | inhibition at 25 µg/mL (Candida albicans): 61% |
| N#CCc1nn(N)c2nc(N3NC4=C(CCCC4)C3c3ccccc3)sc12 (centres unmarked) [Compound 8, 2-(1-amino-5-(3-phenyl-1,3,4,5,6,7-hexahydro-2H-indazol-2-yl)-1H-pyrazolo [3,4-d]thiazol-3-yl)acetonitrile] | significantly downregulated | significantly downregulated | more than threefold | significantly suppressed | significantly downregulated | becomes detectable after treatment | decreased | ~5.9 µg/mL (≈ 15.6 µM) | 26.23 ± 0.30 | 53 ± 2.18 µg/mL (≈ 141 µM) | 15.8 ± 0.205 µg/mL (≈ 41.8 µM) | 56.2 ± 1.24 µg/mL (≈ 149 µM) | had antibiofilm formation activities | ~5.9 µg/mL (≈ 15.6 µM) | 26.08 ± 0.30 | 154 ± 1.76 µg/mL (≈ 407 µM) | IC50 HepG-2 (HepG-2 cells; MTT, 48 h): 5.86 ± 0.34 µg/mL (≈ 15.5 µM); SI HepG-2 (HepG-2 cells; listed as Derivative 8): about 26; IC50 Caco-2 (Caco-2 cells [5]; MTT, 48 h): 5.89 ± 0.38 µg/mL (≈ 15.6 µM); SI Caco-2 (Caco-2 cells [5]; listed as Derivative 8): about 26 |
